The values below are quoted from earlier work in patent publication US11028348B2, “Naturally-derived antimicrobial cleaning solutions” (ProNatural Brands LLC, priority 2014, dated 2021).

For the data set the following is noted: standard pKa.

Structures are written as SMILES.

As for `O=C(O)CC(O)(CC(=O)O)C(=O)O` [citric acid], the pKa1 is given as 3.1, the pKa2 is given as 4.8 and the pKa3 was 6.4.
